SMILES strings stand for the structures. Counter-ions that a name gives are not always drawn. Like-named read-outs stand apart in the source and are kept apart here.

The record followed here is patent publication US20240025899A1, “TRIHETEROCYCLIC DERIVATIVE, AND PHARMACEUTICAL COMPOSITION AND APPLICATION THEREOF” (SHANGHAI DE NOVO PHARMATECH CO., LTD., priority 2020, published 2024).

The target in one assay is ATR/ATRIP kinase (Homo sapiens (Human), UniProt Q13535). In words: ATR enzyme assay (HTRF, phosphorylation of substrate protein P53). The note with it: substrate P53, TR-FRET. The format is biochemical. The method, then:
In this experiment, the phosphorylation level of substrate protein P53 (Eurofins, 14-952) was detected by HTRF technology to measure the activity of ATR/ATRIP (Eurofins, 14-953) kinase. Reaction buffer (25 mM HEPES pH 8.0, 0.01% Brij-35, 1% Glycerol, 5 mM DTT, 1 mg/mL BSA), termination buffer (12.5 mM HEPES pH 8.0, 0.005% Brij-35, 0.5% Glycerol, 250 mM EDTA) and assay buffer (50 mM HEPES pH 7.0, 150 mM NaCl, 267 mM KF, 0.1% sodium cholate, 0.01% Tween 20) were prepared in advance. ATR/ATRIP was diluted with reaction buffer to a working solution of 2 ng/μL, and the substrate protein P53 was diluted with reaction buffer to a working solution of 80 nM, and 4 nM of ATP (Sigma, A2383) working solution (containing 40 mM MnCl2) was prepared with reaction buffer. The compound was 3-fold diluted with DMSO, then diluted with reaction buffer into a working solution, then added to a 384-well plate at 2.5 μL/well, and centrifuged at 1500 rpm for 40 s. Then 2.5 μL of ATR/ATRIP working solution, P53 working solution and ATP working solution were added into the 384-well plate, centrifuged at 1500 rpm for 40 s and reacted at room temperature for 30 minutes. After the reaction was completed, 5 μL of termination buffer was added to each well, and centrifuged at 1500 rpm for 40 s. Antibody working solution containing 0.083 μg/mL anti-phospho-p53 (Ser15)-K (CisBio, cat. 61P08KAE) and 5 μg/mL anti-GST-d2 (CisBio, cat. 61GSTDLA) was prepared with assay buffer and added to the 384-well plate at 5 μL/well, then centrifuged at 1500 rpm for 40 s and reacted overnight at room temperature. Microplate reader (Tecan, Infinite M1000 Pro) was used to detect TR-FRET, and the data were analyzed with Graphpad software, and the four-parameter equation was used to fit the curve and calculate the IC50 value of the inhibitor (Table 1).

The next assay concerns the target CYP2D6 (Homo sapiens (Human), UniProt P10635). In words: Cytochrome oxidase P450 inhibition study, CYP2D6. In kind it is in vitro ADME. The note with it: human liver microsomes; read-out: IC50 2D6. The method, then:
(§1) LC-MS/MS methods were used to evaluate the inhibitory effects of compounds on CYP2C19, 2D6 and 3A4 subtypes. In this method, the test compound was mixed with a solution of human liver microsomes containing CYP model substrates, and incubated together under the addition of NADPH, then the inhibitory IC50 of the compound on CYP2C19, 2D6 and 3A4 was calculated by measuring the amount of metabolites of the model substrate in the reaction solution. The specific experimental method is as follows:
Compounds to be tested were prepared as stock solutions at 10 mM concentration with DMSO and then diluted to 4 mM with acetonitrile solution. At the same time, the corresponding reference inhibitor solutions for CYP subtypes were prepared, for example, the reference inhibitor was Ketoconazole, then these two compounds were prepared separately ([…] of inhibitor DMSO stock solution+[…] of acetonitrile), and the samples prepared under the above conditions were at 400× concentration. Then, the above solution was 3-fold diluted with DMSO/acetonitrile mixture (v/v: 40/60) to prepare the final test solution, and seven concentration points were set for each test compound, and the initial test final concentration was 10 μM. […]
[…] of human liver microsome solution (0.2 mg/mL) was added to each well containing the test compound in the 96-well plate, and then 2 mL of the final test sample of test compounds prepared by serial dilution as described above was added thereto; for each well corresponding to the reference inhibitors, […] of human liver microsome solution (0.2 mg/mL) and 1 mL of the final test sample were added. […] The inhibition rate was determined by comparing the amount of model substrate metabolites at each test concentration without test substance addition, in the GraphPad Prism 5.0 software, the logarithm of the test concentration was used as the abscissa and the inhibition rate was used as the ordinate to perform a linear regression (Sigmoidal (non-linear) dose-response model) analysis to obtain the IC50 value of the test compound.
In general terms: Microsomes from liver hold many membrane-bound enzymes, among them those of drug oxidation.

The next assay deals with CYP3A4 (Homo sapiens (Human), UniProt P08684). In words: Cytochrome oxidase P450 inhibition study, CYP3A4. In kind it is in vitro ADME. The note with it: human liver microsomes. Here is the method:
as §1
Compounds to be tested were prepared as stock solutions at 10 mM concentration with DMSO and then diluted to 4 mM with acetonitrile solution. At the same time, the corresponding reference inhibitor solutions for CYP subtypes were prepared, for example, the reference inhibitor was Ketoconazole, then these two compounds were prepared separately ([…] of inhibitor DMSO stock solution+[…] of acetonitrile), and the samples prepared under the above conditions were at 400× concentration. Then, the above solution was 3-fold diluted with DMSO/acetonitrile mixture (v/v: 40/60) to prepare the final test solution, and seven concentration points were set for each test compound, and the initial test final concentration was 10 μM. NADPH, CYP enzyme model substrate and human liver microsome solution were diluted to appropriate concentrations with pre-warmed potassium phosphate buffer (0.1 M, pH 7.4), respectively. The human liver microsome solution was purchased from BD Gentest (20 mg/mL, Corning, article number #452161).
[…] of human liver microsome solution (0.2 mg/mL) was added to each well containing the test compound in the 96-well plate, and then 2 mL of the final test sample of test compounds prepared by serial dilution as described above was added thereto; for each well corresponding to the reference inhibitors, […] of human liver microsome solution (0.2 mg/mL) and 1 mL of the final test sample were added. […] of the prepared corresponding model substrate was dispensed into a 96-well plate, and the microsome solution was mixed evenly, then 30 mL of the test compound/reference inhibitor-human liver microsome mixture was taken and transferred to the 96-well plate containing the substrate, and the mixture was mixed well and preheated at 37° C. for 5 minutes, then […] of 8 mM NADPH solution preheated at 37° C. was added thereto to start the reaction. A duplicate well control and a blank control without the addition of test substances were set at the same time. The 96-well plate containing a total volume of […] of reaction solution was incubated at 37° C. After the incubation, 120 μL of cold acetonitrile solution containing internal standard was added to each well to terminate the reaction, and then the 96-well plate was shaked on a microplate shaker for 5 minutes (600 rpm/min), and put into a centrifuge and centrifuged for 20 minutes at 6000 rpm, 4° C. Then 40 μL of supernatant from each well was transferred to another 96-well plate, and 80 μL of ultrapure water was added to each well, put into a shaker and mixed for 5 minutes (600 rpm/min), and centrifuged at 6000 rpm, 4° C., for 20 minutes. Then LC-MS/MS detection was performed. The inhibition rate was determined by comparing the amount of model substrate metabolites at each test concentration without test substance addition, in the GraphPad Prism 5.0 software, the logarithm of the test concentration was used as the abscissa and the inhibition rate was used as the ordinate to perform a linear regression (Sigmoidal (non-linear) dose-response model) analysis to obtain the IC50 value of the test compound.

Setting [1] is: substrate Midazolam, read-out: IC50 3A4 (Midazolam).
The mark [2] stands for this setting: substrate Testosterone, read-out: IC50 3A4 (Testosterone).

Sequence of CYP3A4 (P08684 whole entry): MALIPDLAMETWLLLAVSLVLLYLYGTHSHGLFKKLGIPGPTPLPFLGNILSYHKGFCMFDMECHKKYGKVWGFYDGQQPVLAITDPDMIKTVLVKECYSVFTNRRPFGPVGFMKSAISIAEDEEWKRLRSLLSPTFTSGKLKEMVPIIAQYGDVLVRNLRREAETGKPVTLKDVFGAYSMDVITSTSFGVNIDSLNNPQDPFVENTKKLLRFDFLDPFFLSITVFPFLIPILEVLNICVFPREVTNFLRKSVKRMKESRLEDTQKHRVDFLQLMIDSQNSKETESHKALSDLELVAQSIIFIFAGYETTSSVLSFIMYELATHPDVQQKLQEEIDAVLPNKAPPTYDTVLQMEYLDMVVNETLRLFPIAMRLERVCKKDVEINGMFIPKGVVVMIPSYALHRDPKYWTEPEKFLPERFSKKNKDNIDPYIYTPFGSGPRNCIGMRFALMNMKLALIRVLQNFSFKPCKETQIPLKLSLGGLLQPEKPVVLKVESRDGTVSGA
Sequence of ATR/ATRIP kinase (Q13535 whole entry): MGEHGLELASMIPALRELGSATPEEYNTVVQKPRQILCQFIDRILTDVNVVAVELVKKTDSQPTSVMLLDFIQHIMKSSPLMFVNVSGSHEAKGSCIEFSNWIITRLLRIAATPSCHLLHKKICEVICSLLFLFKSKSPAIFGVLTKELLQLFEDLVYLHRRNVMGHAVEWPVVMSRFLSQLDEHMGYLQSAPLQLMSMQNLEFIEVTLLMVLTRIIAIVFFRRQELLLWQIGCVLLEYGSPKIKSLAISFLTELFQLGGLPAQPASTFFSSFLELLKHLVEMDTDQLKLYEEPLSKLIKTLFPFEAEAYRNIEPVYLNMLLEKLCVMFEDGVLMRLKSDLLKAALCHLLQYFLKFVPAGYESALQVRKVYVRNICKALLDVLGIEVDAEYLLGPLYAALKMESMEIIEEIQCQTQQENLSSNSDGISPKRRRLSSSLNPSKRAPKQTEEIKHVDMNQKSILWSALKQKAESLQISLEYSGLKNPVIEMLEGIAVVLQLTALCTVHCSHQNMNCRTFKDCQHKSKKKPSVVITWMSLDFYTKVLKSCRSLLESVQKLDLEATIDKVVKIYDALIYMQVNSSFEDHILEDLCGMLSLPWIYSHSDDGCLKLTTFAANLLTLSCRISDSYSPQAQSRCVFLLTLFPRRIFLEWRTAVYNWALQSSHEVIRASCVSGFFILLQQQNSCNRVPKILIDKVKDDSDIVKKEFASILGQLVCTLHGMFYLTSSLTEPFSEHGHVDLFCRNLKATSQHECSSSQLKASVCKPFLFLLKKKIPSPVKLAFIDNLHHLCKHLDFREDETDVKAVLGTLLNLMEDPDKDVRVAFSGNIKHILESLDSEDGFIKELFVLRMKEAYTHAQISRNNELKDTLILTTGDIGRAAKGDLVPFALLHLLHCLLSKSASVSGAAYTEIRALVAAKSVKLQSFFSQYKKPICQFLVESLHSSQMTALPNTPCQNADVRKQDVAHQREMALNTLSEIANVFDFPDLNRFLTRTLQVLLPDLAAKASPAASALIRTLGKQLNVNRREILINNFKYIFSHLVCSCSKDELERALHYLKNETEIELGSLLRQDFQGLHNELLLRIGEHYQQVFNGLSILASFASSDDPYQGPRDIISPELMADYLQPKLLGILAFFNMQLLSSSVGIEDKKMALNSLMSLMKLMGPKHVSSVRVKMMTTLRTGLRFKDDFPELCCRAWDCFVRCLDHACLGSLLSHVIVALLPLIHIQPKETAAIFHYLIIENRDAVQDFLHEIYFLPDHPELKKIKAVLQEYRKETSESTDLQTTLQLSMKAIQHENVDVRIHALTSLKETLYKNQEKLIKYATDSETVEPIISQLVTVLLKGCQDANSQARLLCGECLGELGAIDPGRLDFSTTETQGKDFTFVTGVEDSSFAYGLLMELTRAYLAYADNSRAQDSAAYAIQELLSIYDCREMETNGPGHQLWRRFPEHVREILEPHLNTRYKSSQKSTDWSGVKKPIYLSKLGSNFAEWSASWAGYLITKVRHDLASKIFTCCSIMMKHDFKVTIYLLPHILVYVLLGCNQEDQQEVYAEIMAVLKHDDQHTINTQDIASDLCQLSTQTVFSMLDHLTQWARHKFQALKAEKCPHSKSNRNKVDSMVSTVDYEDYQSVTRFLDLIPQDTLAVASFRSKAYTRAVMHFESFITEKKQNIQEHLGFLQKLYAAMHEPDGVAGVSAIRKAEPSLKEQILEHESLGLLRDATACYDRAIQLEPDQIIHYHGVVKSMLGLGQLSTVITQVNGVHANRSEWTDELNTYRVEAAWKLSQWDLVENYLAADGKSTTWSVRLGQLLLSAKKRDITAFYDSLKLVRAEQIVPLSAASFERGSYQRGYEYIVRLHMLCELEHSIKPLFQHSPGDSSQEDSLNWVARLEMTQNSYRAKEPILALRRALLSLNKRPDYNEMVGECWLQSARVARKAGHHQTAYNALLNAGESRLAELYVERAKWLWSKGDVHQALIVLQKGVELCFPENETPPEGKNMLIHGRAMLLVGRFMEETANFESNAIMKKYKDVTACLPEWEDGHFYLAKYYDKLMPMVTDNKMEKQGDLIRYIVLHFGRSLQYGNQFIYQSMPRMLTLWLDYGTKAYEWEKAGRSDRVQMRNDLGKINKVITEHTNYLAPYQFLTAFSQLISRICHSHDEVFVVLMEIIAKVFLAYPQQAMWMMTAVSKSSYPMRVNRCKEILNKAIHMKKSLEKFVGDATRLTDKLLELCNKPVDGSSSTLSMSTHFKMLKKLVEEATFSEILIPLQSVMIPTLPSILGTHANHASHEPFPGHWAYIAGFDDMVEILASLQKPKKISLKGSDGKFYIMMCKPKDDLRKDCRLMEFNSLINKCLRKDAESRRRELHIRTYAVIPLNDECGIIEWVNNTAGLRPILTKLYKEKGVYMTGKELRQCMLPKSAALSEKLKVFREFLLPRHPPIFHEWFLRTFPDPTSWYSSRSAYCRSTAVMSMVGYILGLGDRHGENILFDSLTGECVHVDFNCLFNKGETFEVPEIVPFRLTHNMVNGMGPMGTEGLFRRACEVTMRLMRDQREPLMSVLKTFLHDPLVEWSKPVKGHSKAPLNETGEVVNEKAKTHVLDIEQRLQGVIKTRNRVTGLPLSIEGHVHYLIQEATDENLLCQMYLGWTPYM
Sequence of ATR/ATRIP kinase (Q8WXE1 whole entry partner): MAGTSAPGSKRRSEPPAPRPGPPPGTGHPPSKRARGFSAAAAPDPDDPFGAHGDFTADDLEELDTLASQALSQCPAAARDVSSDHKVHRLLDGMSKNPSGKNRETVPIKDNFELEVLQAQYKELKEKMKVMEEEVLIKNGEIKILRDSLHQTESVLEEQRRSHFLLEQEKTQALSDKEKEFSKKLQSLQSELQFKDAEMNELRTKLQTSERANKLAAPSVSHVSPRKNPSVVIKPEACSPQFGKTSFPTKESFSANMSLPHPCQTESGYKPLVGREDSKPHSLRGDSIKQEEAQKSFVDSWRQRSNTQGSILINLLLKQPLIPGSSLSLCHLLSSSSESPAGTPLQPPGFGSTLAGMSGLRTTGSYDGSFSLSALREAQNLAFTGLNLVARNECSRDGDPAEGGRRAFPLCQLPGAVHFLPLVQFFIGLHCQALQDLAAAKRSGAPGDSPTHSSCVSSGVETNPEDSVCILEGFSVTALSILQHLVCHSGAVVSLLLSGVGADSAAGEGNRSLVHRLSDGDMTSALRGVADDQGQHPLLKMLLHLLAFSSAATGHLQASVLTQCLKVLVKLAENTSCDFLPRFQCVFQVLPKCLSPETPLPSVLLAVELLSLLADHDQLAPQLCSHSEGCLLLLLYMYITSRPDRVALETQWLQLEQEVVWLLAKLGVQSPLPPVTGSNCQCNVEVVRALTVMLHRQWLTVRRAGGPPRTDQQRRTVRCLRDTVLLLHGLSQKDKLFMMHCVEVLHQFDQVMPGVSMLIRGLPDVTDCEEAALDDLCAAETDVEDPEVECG
Sequence of CYP2D6 (P10635 whole entry): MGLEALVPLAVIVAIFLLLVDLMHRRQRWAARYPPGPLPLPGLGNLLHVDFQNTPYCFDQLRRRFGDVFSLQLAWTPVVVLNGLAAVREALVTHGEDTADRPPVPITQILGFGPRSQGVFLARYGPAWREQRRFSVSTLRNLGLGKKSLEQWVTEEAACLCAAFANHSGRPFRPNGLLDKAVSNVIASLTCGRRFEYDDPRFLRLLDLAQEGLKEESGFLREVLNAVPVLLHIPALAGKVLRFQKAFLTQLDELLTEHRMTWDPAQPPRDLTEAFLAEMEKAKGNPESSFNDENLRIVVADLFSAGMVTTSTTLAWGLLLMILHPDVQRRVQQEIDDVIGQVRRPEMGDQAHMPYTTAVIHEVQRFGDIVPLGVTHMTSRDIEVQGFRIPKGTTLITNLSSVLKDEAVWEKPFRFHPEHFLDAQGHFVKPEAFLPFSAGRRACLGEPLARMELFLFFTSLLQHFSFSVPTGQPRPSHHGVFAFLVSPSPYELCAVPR

Take `C[C@@H]1COCCN1c1nc2c(cnn2-c2cc[nH]n2)c2c1ccn2S(C)(=O)=O` [Compound 1, (R)-3-methyl-4-(1-(methylsulfonyl)-6-(1H-pyrazol-3-yl)-1,6-dihydropyrazolo[3,4-b]pyrrolo[2,3-d]pyridin-4-yl)morpholine trifluoroacetate]: the IC50 (as a rule, the midpoint of a concentration-inhibition curve) was 0.0012 µM on ATR/ATRIP kinase, over 10 µM on CYP2D6, over 10 µM at CYP3A4 (setting [1]) and over 10 µM at CYP3A4 (setting [2]).

Consider `C[C@@H]1COCCN1c1nc2c(cnn2-c2cc[nH]n2)c2c1CCN2S(C)(=O)=O` [Compound 2, (R)-3-methyl-4-(1-(methylsulfonyl)-6-(1H-pyrazol-3-yl)-1,2,3,6-tetrahydropyrazolo[3,4-b]pyrrolo[2,3-d]pyridin-4-yl)morpholine trifluoroacetate], for which the 50% inhibitory concentration (IC50) on ATR/ATRIP kinase was 0.00069 µM; on CYP2D6, over 10 µM; at CYP3A4 (setting [1]), over 10 µM; at CYP3A4 (setting [2]), over 10 µM.
